In ChEMBL document CHEMBL1156406, “New Xenia diterpenoids from the Indonesian soft coral Xenia sp” (J Nat Prod, 2002):

How the values were obtained:
Format in all cases: functional, cell-based
HT-29 = assay: Cytotoxicity against human HT-29 cells
A549 = assay: Cytotoxicity against human A549 cells
SK-MEL-28 = assay: Cytotoxicity against human SK-MEL-28 cells
P388 = assay: Cytotoxicity against mouse P388 cells

Measured: IC50

C=C1CC[C@@H]2/C(=C/C=C/C(C)(C)O)C(=O)OC[C@H]2C(=C)CC[C@@H]1O
> 1 µg/mL: all assays above

C=C1CC[C@@H]2/C(=C/C=C/C(C)(C)O)C(=O)OC[C@H]2C(=C)C[C@@H](O)[C@@H]1O
> 1 µg/mL: all assays above

C=C1C[C@@H](O)C2OC2(C)CC[C@@H]2/C(=C/C=C/C(C)(C)O)C(=O)OC[C@@H]12 (stereo partly specified)
> 1 µg/mL: all assays above

C=C1C[C@@H](O)/C=C(\C)CC[C@@H]2/C(=C/C=C/C(C)(C)O)C(=O)OC[C@@H]12 [ISOXENIOLIDE A]
> 1 µg/mL: all assays above
